Laboratory results from PMC8176454, “Synthesis and Assessment of Novel Probes for Imaging Tau Pathology in Transgenic Mouse and Rat Models” (ACS Chemical Neuroscience, 2021).

Tests used:
[1] = test system: tau pathology in PS19 tau transgenic mice; set-up: method as in PMID 24050400; conditions: cited from earlier work
[2] = biological target: T1, heparin-induced synthetic recombinant tau fibrils (tau-441 human) (Homo sapiens, UniProt P10636); test: Fluorescence quenching assay of compound binding to heparin-induced synthetic recombinant tau fibrils; conditions: read-out: Kd of compound binding to heparin-induced synthetic tau fibrils determined by fluorimetry
T1 construct: purchased Eurogentec
Experimental: All compounds were assessed for their ability to bind to synthetic recombinant tau fibrils using a fluorescence quenching assay[20] […] Binding affinities for some compounds (141, 164, 166, 169, 171, and 207) could not be assessed with this assay because of negligible changes in fluorescence intensity. […] This compound was then selected for further characterization and development.
All reagents and solvents were used as supplied or purified using standard procedures as necessary. Analytical separation was conducted on an Ultimate 3000 HPLC system (Thermo Scientific). [^11C]CO2 was produced via the ^14N(p,α) nuclear reaction using GE PETtrace cyclotron applying 16.5 MeV protons onto 0.5% oxygen in nitrogen gas. [^11C]Methyl iodide was synthesized on a GE Medical Systems MeI MicroLab. A F-4500 FL spectrophotometer (Chemical Engineering department, University of Cambridge) was used to do fluorescence scan of all of the compounds mixed with tau fibrils. Excitation wavelength was 365 nm, and emission was scanned from 400 to 600 nm. With parameters, setting excitation slit was 5.0 nm, emission slit was 20.0 nm, PMT voltage was 950 V, and response was 0.5 s.
Monomeric tau (tau-441 human) lyophilized powder was obtained from Eurogentec. Tau monomers (100 μM) were prepared in 20 mM BES buffer (pH 7.4 with 25 mM NaCl and 2 mM dithiothreitol and incubated at 56 °C for 10 min. After being cooled to room temperature in a water bath, heparin (25 μM) and a protease inhibitor mix were added and incubated at 37 °C for 10 days. […]
Binding affinity of all compounds with tau fibrils […]
All other compounds binding affinit ies towards tau fibrils
were then tested by fluorescent binding assay. […]

[3] = In vivo PET studies in wild-type and P301S tau mice; set-up: species or system mouse; conditions: for Maximum brain uptake (%ID/g max): whole brain
Description: We then performed preliminary in vivo PET studies with [^11C]L229 in both WT and transgenic P310S tau mice. […] Further PET studies are required to fully characterize the in vivo pharmacokinetics of the radiotracer in both mice and rats.
These studies were regulated under the Animals (Scientific Procedures) Act 1986 Amendment Regulations 2012 following ethical review by the University of Cambridge Animal Welfare and Ethical Review Body (AWERB). The mice were anesthetized with 5% isoflurane, and general anesthesia was maintained using 1.5% isoflurane. The anesthetized mice were placed prone on the bed of a microPET Focus-220 scanner (Concorde Microsystems, Knoxville, TN). Body temperature was maintained at 37 °C using a heating blanket connected to a rectal thermistor probe. Blood oxygen saturation as well as heart rate and breathing rate were monitored and maintained within normal limits using a noninvasive mouseOX pulse-oximeter sensor (Starr Life Science Corp., Oakmont, PA) attached to the thigh. Before the injection of a tracer, a transmission scan was performed with a 68Ge point source for attenuation and scatter correction of 511 keV photons. [^11C]LM229 was injected via the tail vein over 30 s, followed by a 15 s heparin–saline flush. Dynamic data were acquired in list mode for 90 min. Data were subsequently Fourier rebinned in following time frames: 12 × 5 s, 6 × 10 s, 3 × 20 s, 4 × 30 s, 5 × 60 s, 10 × 120 s, 12 × 5 min. Corrections were applied for randoms, dead time, normalization, attenuation, and decay. Fourier rebinning was used to compress the 4D sinograms to 3D before reconstruction with a 2D-filtered back projection with a Hann window cutoff at the Nyquist frequency. The image voxel size was 0.95 × 0.95 × 0.80 mm, with an array size of 128 × 128 × 95.
Three-dimensional volumes of interest (VOIs) for mice brain MRI template available on PMOD software (version 3.8; PMOD technologies, Zurich, Switzerland) were modified to obtain a whole brain VOI. […] The results were expressed as % injected dose per gram, assuming a specific gravity of 1 g·mL^–1 for brain tissue.

tau fibrils [4] = biological target: T2, tau fibrils (Homo sapiens, UniProt P10636); test: Microscale thermophoresis screen for interaction with tau fibrils; format: binding; conditions: 1 µM and 1 nM compound mixed with 100 nM tau fibrils
T2 construct: purchased Eurogentec
Experimental: buffer) for 1 h at room temperature. Following 3 washes in PBS/0.1% Triton X-100, 50 µM LM229 (diluted in 1:1 blocking buffer/ethanol) was then added for 1 h at room temperature. Nuclei were stained with DAPI (0.1mg/ml for 10 min), washed and tissues mounted in FluorSaveTM prior to analysis using fluorescence […]
Binding affinity of all compounds with tau fibrils
Microscale Thermophoresis was first used to screen whether there were interaction between the compounds and tau fibrils. For this procedure 200 µL, 5 µM tau fibrils were mixed with 200 µL, 10 µM NT647-NHS dye and then incubated in dark for 30 minutes. Further dialysis (18 hours, changing the buffer after the first 4 hours) was used to remove the free dye giving a 2.5 µM solution of label led protein. The label ling ratio of dye unit per tau monomer was then tested by a method recommended by the instrument manufacturer, NanoTemper Technologies, which is based on a cal ibration curve. The 2.5 µM tau fibril solution was then aliquoted prior to use. The unused samples were frozen at -20 °C. MST measurements were conducted using Monolith NT.115 instrument (NanoTemper Technologies, Germany) at 25 °C. Assays were conducted at 40 % MST Power and 90 % IR-laser power. With each compound, two concentrations (1µM and 1nM) were used to mix with 100nM tau fibrils and then loaded to the MST instrument to read out the MST data curve. Only three compounds 166, 164 […]
All other compounds binding affinit ies towards tau fibrils were then tested by fluorescent binding assay.
(§1) Binding to cultured neurons from P301S tau transgenic mice
(§2) DRG were incubated with the indicated concentrations of LM229 or PBB3 for 20 minutes at room temperature, washed 3 times in PBS, and imaged on a Leica DMI 4000B microscope using a Leica DFC3000 G camera and the Leica application suite 4.0.0.11706. Fluorescence intensity was measured in 10-16 neurons each from 3 independent cultures using Image J (imagej.nih.gov/ij/). Results shown are mean ± SD. Non linear least squares curve fitting was applied using http://faculty.gvsu.edu/carlsont/232lab/nonlin2.html. […]

[5] = biological target: T3, 3R tau151-391 aggregates in cortical sections from SHR24 rats (Homo sapiens, UniProt P10636); test: Binding to SHR24 transgenic rat brain sections; conditions: 50 μM, colocalization with AT8
T3 construct: tissue AXON Neuroscience; host or cells: brain (cortex) sections of SHR24 transgenic rats
Description: (§3) Since future PET studies for development of these compounds would require kinetic modeling for their assessment in vivo, we tested their performance in tau transgenic rats. Rat brains and blood volumes are about 6- and 10-fold larger, respectively, than those of mice and thus enable higher resolution imaging and ample volume for repeated blood sampling. We used two transgenic rat lines expressing human-truncated tau comprising the proline-rich region and either three microtubule binding domains (3R tau151-391, SH24)[28] or four microtubule binding domains (4R tau151-391, SHR72).[29] […] However, compared to the SHR24 rat brain sections, there were less inclusions detected, which seems to indicate the compounds have preferential binding toward the three repeat forms of tau in these rat models.
(§4) Fresh frozen rat brain coronal sections (10 μm) were stored on slides at −80 °C until use. Sections were fixed in ice cold acetone for 10 min and air-dried and then rehydrated twice for 5 min with buffer (10 mM PBS with 0.1% Triton X-100) before application of 5% bovine serum albumin for 1 h and two more 5 min buffer washes. Primary monoclonal antibody AT8 (Thermo MN1020, 1:1000) was added overnight at 4 °C, followed by 1 h incubation with a mixture of secondary AlexaFluor555 goat anti-mouse antibody (1:1000) and 50 μM PBB3 or LM229 in 50:50 ethanol/buffer. Following two 5 min washes in buffer, the slides were air-dried and cover-slipped using Fluorsave before analysis. The green autofluorescence of PBB3 and LM229 was visualized using a 488 nm filter and fluorescence of AT8 using a 568 nm filter on a Leica DM6000 microscope.

[6] = test system: 3R tau151-391 aggregates in cortical sections from SHR24 rats; test: Binding to SHR24 transgenic rat brain sections; conditions: SHR24 (3R) vs SHR72 (4R) brain tissue
Description: as §3, §4

[7] = test system: tau aggregates in DRG neurons from P301S tau mice; test: Fluorescence binding to cultured DRG neurons from P301S tau transgenic mice; format: cell-based, mouse; conditions: IC50 could not be derived because of low affinity
Experimental: P301S tau mice with aggregated tau in the brain also express aggregated tau in DRG neurons.[24]−[26] […] To estimate the apparent affinity of LM229 to tau aggregates directly in living neurons, we imaged live neurons after 20 min incubation with various concentrations of LM229 (Figure 4A). […] LM229 binding was specific to neurons with aggregated tau, as detected with the AT100 antibody[18],[22],[23],[26] (Figure 4D). […] Although PBB3 also bound to DRG neurons with tau aggregates at 30–100 μM, it was not possible to derive an IC50 value because of its low affinity in this assay (Supporting Information, Figure S2). […] The shift from nanomolar to micromolar affinity between binding to heparin tau fibrils and tau aggregates in P301S tau neurons may reflect the different environment and assay conditions or the different conformations that tau aggregates assume in neurons compared to heparin–tau complexes.[27]
Neurons were prepared from phenotypic end stage 5–7 month old P301S tau mice and cultured as described previously.[24] For live staining, neurons cultured for 2 days were washed in PBS and incubated with various concentrations of LM229 for 20 min at room temperature. After three washes in PBS, neurons were imaged on a Leica DMI 4000B microscope using a DFC3000 G camera and application suite 4.0.0.11706. The dead cell stain Propidium iodide (1 μg/mL) was added to ensure that only live cells were imaged. Phase contrast images were taken to show viable neurons. For fixed cell staining, neurons were fixed for 20 min at room temperature in 4% paraformaldehyde, washed in PBS, and permeabilized in PBS containing 0.3% Triton X-100. LM299 was added as described for live cells, and cells were probed with AT100 (1:1000, MN1060) followed by anti-mouse AlexaFluor568 secondary antibody. Cultures were co-stained with the nuclear dye DAPI (blue) to reveal total cells. […]
as §1
as §2, with “http://faculty.gvsu.edu/carlsont/232lab/nonlin2.html. No Km value was” for “http://faculty.gvsu.edu/carlsont/232lab/nonlin2.html.”
Figure S2: Binding of LM229 and PBB3 to DRG neurons with tau aggregates […]
(1 picture or pasted object on this page, not shown here)

[8] = biological target: T4, tau aggregates in brain of P301S tau mice (Homo sapiens, UniProt P10636, P618S); test: Ex vivo mouse study: i.v. injection, brain sections imaged after 1 h; format: in vivo; conditions: i.v. injection 1 h prior, colocalization with AT8
T4 construct: from tissue; host or cells: brain of transgenic P301S tau mice (C57Bl/6 background)
Experimental: We next looked at the ability of LM229 to cross the blood–brain barrier (BBB), a key property of any viable neuro-radiotracer. LM229 was injected intravenously (i.v.) (1 mg/kg weight), and after 1 h, WT and P301S tau mice were perfused-fixed and brain sections were imaged under a fluorescence microscope. […] However, we await a comparison of PBB3 and LM229 by PET imaging to determine their relativity properties as in vivo imaging probes.
Mice were injected intravenously (i.v.) with 50 μM LM229 or PBB3 (DMSO) diluted in 50:50 ethanol/PBS. Animals were then perfused (4% PFA) 1 h post-i.v.

[9] = biological target: T5, 4R tau151-391 aggregates in brainstem sections from SHR72 rats (Homo sapiens, UniProt P10636); test: Binding to SHR72 transgenic rat brain sections; conditions: 50 μM, colocalization with AT8
T5 construct: tissue AXON Neuroscience; host or cells: brain (brainstem) sections of SHR72 transgenic rats
Description: as §3
Fresh frozen rat brain coronal sections (10 μm) were stored on slides at −80 °C until use. Sections were fixed in ice cold acetone for 10 min and air-dried and then rehydrated twice for 5 min with buffer (10 mM PBS with 0.1% Triton X-100) before application of 5% bovine serum albumin for 1 h and two more 5 min buffer washes. […] The green autofluorescence of PBB3 and LM229 was visualized using a 488 nm filter and fluorescence of AT8 using a 568 nm filter on a Leica DM6000 microscope.

tau fibrils [10] = biological target: tau fibrils; set-up: method as in PMID 28087578; conditions: read-out: Kd, previously reported value; cited from earlier work
[11] = test system: brainstem of P301S tau mice; set-up: method as in PMID 29930508; conditions: P301S tau mice vs WT; cited from earlier work
[12] = test system: tau tangles in transgenic mice expressing mutant human P301L tau; set-up: method as in PMID 27030397, PMID 23411393; conditions: in vitro and microPET in vivo imaging; cited from earlier work

T2 sequence (P10636 1-441 isoform P10636-8): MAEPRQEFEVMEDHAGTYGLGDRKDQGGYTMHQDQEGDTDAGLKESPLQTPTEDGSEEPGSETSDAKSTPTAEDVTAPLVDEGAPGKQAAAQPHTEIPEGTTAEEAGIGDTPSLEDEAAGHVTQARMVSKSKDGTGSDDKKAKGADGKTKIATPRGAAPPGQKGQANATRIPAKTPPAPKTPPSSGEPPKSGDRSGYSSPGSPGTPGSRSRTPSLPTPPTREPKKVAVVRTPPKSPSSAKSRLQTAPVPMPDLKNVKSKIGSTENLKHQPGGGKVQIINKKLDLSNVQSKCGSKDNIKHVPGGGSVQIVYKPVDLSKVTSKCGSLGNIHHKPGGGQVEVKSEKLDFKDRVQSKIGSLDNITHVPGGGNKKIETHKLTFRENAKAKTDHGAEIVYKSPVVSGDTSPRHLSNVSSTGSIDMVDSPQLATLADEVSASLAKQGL
T1 sequence (P10636 1-441 isoform P10636-8): as above
T3 sequence (P10636 151-360 isoform P10636-5): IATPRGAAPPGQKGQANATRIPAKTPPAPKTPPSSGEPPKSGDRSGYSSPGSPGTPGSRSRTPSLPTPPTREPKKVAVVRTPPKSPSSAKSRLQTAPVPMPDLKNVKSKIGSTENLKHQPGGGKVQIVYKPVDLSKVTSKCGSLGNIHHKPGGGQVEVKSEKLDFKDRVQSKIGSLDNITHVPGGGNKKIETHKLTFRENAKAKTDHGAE
T4 sequence (P10636 1-383 isoform P10636-6 P243S): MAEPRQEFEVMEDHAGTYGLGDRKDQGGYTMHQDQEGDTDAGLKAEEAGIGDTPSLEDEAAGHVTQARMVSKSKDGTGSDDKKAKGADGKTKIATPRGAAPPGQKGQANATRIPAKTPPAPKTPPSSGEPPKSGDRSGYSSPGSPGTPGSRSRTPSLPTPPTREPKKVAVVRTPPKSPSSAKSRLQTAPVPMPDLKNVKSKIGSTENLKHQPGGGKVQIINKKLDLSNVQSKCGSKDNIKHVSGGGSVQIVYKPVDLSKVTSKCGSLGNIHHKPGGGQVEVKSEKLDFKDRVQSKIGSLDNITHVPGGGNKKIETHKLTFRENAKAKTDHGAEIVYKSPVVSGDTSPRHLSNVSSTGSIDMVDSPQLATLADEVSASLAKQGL
T5 sequence (P10636 468-708): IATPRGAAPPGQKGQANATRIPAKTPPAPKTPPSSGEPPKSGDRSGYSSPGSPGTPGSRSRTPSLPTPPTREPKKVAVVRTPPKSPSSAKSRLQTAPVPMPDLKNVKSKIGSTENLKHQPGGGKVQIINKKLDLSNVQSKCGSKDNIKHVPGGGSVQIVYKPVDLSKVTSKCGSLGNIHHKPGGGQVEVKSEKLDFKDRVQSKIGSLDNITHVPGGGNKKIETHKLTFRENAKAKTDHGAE

[11CH3]Nc1ccc(/C=C/C=C/c2nc3ccc(O)cc3s2)cn1 [[^11C]PBB3]
Binding to tau pathology in PS19 tau transgenic mice [1]: bind to tau pathology

CNc1ccc(/C=C/C=C/c2nc3cc(OCCF)ccc3s2)cn1 [compound 236]
Kd [2]: 454 nM

[11CH3]Nc1ccc(/C=C/C=C/c2nc3cc(F)c(O)cc3s2)cn1 [[^11C]LM229]
Maximum brain uptake (%ID/g max) ([3]; P301S mouse): 2.38 %ID/g
Time of maximum brain uptake ([3]; WT and P301S mice): within the first minute
Maximum brain uptake (%ID/g max) ([3]; WT mouse): 1.56 %ID/g

Oc1ccc2sc(/C=C/C=C/c3ccc(F)cn3)nc2c1 [compound 166]
Change of the MST data curve (tau fibrils [4]): no changes

Fc1ccc(/C=C/C=C/c2nc3ccccc3s2)cn1 [compound 169]
Change of the MST data curve (tau fibrils [4]): no changes

CNc1ccc(/C=C/C=C/c2nc3cc(F)c(OC)cc3s2)cn1 [compound 225]
Kd [2]: 1.1 nM

Oc1ccc2nc(/C=C/C=C/c3ccc(F)cn3)sc2c1 [compound 152]
Kd [2]: 353 nM

Fc1ccc(/C=C/C=C/c2nc3ccccc3s2)nc1 [compound 164]
Change of the MST data curve (tau fibrils [4]): no changes

CNc1ccc(/C=C/C=C/c2nc3ccc(O)cc3s2)cn1 [PBB3, reference compound]
Binding to pathological aggregated tau in SHR24 rat brain sections [5]: bound with similar properties to pathological aggregated tau
Preference between 3R and 4R tau inclusions in rat models [6]: preferential binding toward the 3R tau inclusions
Concentration at which binding to DRG neurons with tau aggregates was seen [7]: 30 to 100 µM
Kd [2]: 1.4 nM
Ex vivo binding in P301S tau brain tissue [8]: significant nonspecific binding
Binding to tau in SHR72 rat brain sections [9]: bound to tau in brain sections from SHR72 rats
Kd (tau fibrils [10]): 1.3 nM

[18F]c1ccc(-c2ccc3c(c2)[nH]c2ccncc23)cn1 [[^18F]T807]
Difference in retention in brainstem compared to control WT mice [11]: no more than 23%
Specific binding to tau tangles in P301L tau mice [12]: no specific binding

Oc1ccc2nc(/C=C/C=C/c3ccc(F)nc3)sc2c1 [compound 148]
Kd [2]: 56 nM
